Test results published in US8937092B2, “Aryl or N-heteroaryl substituted methanesulfonamide derivatives as vanilloid receptor ligands” (Gruenenthal GmbH, priority 2011, dated 2015).

The compounds below were run against vanilloid receptor 1 (VR1/TRPV1 receptor) (Homo sapiens, UniProt Q8NER1) (assay: Functional FLIPR Ca2+ influx assay on vanilloid receptor 1, capsaicin (Cap) stimulus). Conditions: Ki from IC50 by Cheng-Prusoff, read-out: (f) Ki (human being) [nM], Cap.
Assay type: cell-based
Method: Furthermore, preference may be given to compounds according to the invention that cause a 50 percent displacement of capsaicin, which is present at a concentration of 100 nM, in a FLIPR assay with CHO K1 cells which were transfected with the human VR1 gene at a concentration of less than 2,000 nM, preferably less than 1,000 nM, particularly preferably less than 300 nM, most particularly preferably less than 100 nM, even more preferably less than 75 nM, additionally preferably less than 50 nM, most preferably less than 10 nM.
In the process, the Ca^2+ influx is quantified in the FLIPR assay with the aid of a Ca^2+-sensitive dye (type Fluo-4, Molecular Probes Europe BV, Leiden, the Netherlands) in a fluorescent imaging plate reader (FLIPR, Molecular Devices, Sunnyvale, USA), as described hereinafter.
Pharmacological Methods I. Functional Testing Carried Out on the Vanilloid Receptor 1 (VRI/TRPV1 Receptor) […]
The number of cells in the suspension is set to 3×10^5 per mL and 150 μL of this suspension are in each case introduced into a recess in the cell culture plates coated as described hereinbefore. In the incubator the plates are left for two to three days at 37° C., 5% by volume of CO2 and 95% relative humidity. Subsequently, the cells are loaded with 2 μM of Fluo-4 and 0.01% by volume of Pluronic F127 (Molecular Probes Europe BV, Leiden, the Netherlands) in HBSS buffer (Hank's buffered saline solution, Gibco Invitrogen GmbH, Karlsruhe, Germany) for 30 min at 37° C., washed 3 times with HBSS buffer and after further incubation for 15 minutes at room temperature used for Ca^2+ measurement in a FLIPR assay. The Ca^2+-dependent fluorescence is in this case measured before and after the addition of substances (λex=488 nm, λem=540 nm). Quantification is carried out by measuring the highest fluorescence intensity (FC, fluorescence counts) over time.
The FLIPR protocol consists of 2 substance additions. First the compounds to be tested (10 μM) are pipetted onto the cells and the Ca^2+ influx is compared with the control (capsaicin 10 μM). This provides the result in % activation based on the Ca^2+ signal after the addition of 10 μM of capsaicin (CP). After 5 minutes' incubation, 100 nM of capsaicin are applied and the Ca^2+ influx is also determined.
Desensitising agonists and antagonists lead to suppression of the Ca^2+ influx. The % inhibition is calculated compared to the maximum achievable inhibition with 10 μM of capsazepine.
Triple analyses (n=3) are carried out and repeated in at least 3 independent experiments (N=4).
Starting from the percentage displacement caused by different concentrations of the compounds to be tested of general formula I, IC50 inhibitory concentrations which cause a 50-percent displacement of capsaicin were calculated. K, values for the test substances were obtained by conversion by means of the Cheng-Prusoff equation (Cheng, Prusoff; Biochem. Pharmacol. 22, 3099-3108, 1973).
The affinity of the compounds according to the invention for the vanilloid receptor 1 (VR1/TRPV1 receptor) was determined as described herein before (pharmacological method I).
The value after the “@” symbol indicates the concentration at which the inhibition (as a percentage) was respectively determined.

Compound	Ki [nM]
Cc1cccc(-c2nc(C(F)(F)F)ccc2CNC(=O)Nc2ccc(CNS(C)(=O)=O)c(F)c2)c1 [Example 27, N-(2-fluoro-4-(3-((2-m-tolyl-6-(trifluoromethyl)pyridin-3-yl)methyl)ureido)benzyl)methanesulfonamide]	10
Cc1ccc(-c2nc(C(F)(F)F)ccc2CNC(=O)C(C)c2ccc(CNS(C)(=O)=O)c(F)c2)cc1 (centres unmarked) [Example 29, 2-(3-fluoro-4-(methylsulfonamidomethyl)phenyl)-N-((2-p-tolyl-6-(trifluoromethyl)pyridin-3-yl)methyl)propanamide]	32
Cc1cccc(-c2nc(C(F)(F)F)ccc2CNC(=O)C(C)c2ccc(CNS(C)(=O)=O)c(F)c2)c1C (centres unmarked) [Example 30, N-((2-(2,3-dimethylphenyl)-6-(trifluoromethyl)pyridin-3-yl)methyl)-2-(3-fluoro-4-(methylsulfonamidomethyl)phenyl)propanamide]	41
Cc1ccc(-c2nc(C(F)(F)F)ccc2CNC(=O)C(C)c2ccc(CNS(C)(=O)=O)c(F)c2)cc1C (centres unmarked) [Example 31, N-((2-(3,4-dimethylphenyl)-6-(trifluoromethyl)pyridin-3-yl)methyl)-2-(3-fluoro-4-(methylsulfonamidomethyl)phenyl)propanamide]	28
Cc1cc(C)cc(-c2nc(C(F)(F)F)ccc2CNC(=O)C(C)c2ccc(CNS(C)(=O)=O)c(F)c2)c1 (centres unmarked) [Example 32, N-((2-(3,5-dimethylphenyl)-6-(trifluoromethyl)pyridin-3-yl)methyl)-2-(3-fluoro-4-(methylsulfonamidomethyl)phenyl)propanamide]	22
Cc1cccc(-c2nc(C(F)(F)F)ccc2CNC(=O)C(C)c2ccc(CNS(C)(=O)=O)c(F)c2)c1F (centres unmarked) [Example 34, N-((2-(2-fluoro-3-methylphenyl)-6-(trifluoromethyl)pyridin-3-yl)methyl)-2-(3-fluoro-4-(methylsulfonamidomethyl)phenyl)propanamide]	27
Cc1cc(-c2nc(C(F)(F)F)ccc2CNC(=O)C(C)c2ccc(CNS(C)(=O)=O)c(F)c2)ccc1F (centres unmarked) [Example 35, N-((2-(4-fluoro-3-methylphenyl)-6-(trifluoromethyl)pyridin-3-yl)methyl)-2-(3-fluoro-4-(methylsulfonamidomethyl)phenyl)propanamide]	7
Cc1cc(F)cc(-c2nc(C(F)(F)F)ccc2CNC(=O)C(C)c2ccc(CNS(C)(=O)=O)c(F)c2)c1 (centres unmarked) [Example 36, 2-(3-fluoro-4-(methylsulfonamidomethyl)phenyl)-N-((2-(3-fluoro-5-methylphenyl)-6-(trifluoromethyl)pyridin-3-yl)methyl)propanamide]	63
Cc1ccc(F)c(-c2nc(C(F)(F)F)ccc2CNC(=O)C(C)c2ccc(CNS(C)(=O)=O)c(F)c2)c1 (centres unmarked) [Example 37, 2-(3-fluoro-4-(methylsulfonamidomethyl)phenyl)-N-((2-(2-fluoro-5-methylphenyl)-6-(trifluoromethyl)pyridin-3-yl)methyl)propanamide]	16
Cc1cc(-c2nc(C(F)(F)F)ccc2CNC(=O)C(C)c2ccc(CNS(C)(=O)=O)c(F)c2)ccc1C#N (centres unmarked) [Example 39, N-((2-(4-cyano-3-methylphenyl)-6-(trifluoromethyl)pyridin-3-yl)methyl)-2-(3-fluoro-4-(methylsulfonamidomethyl)phenyl)propanamide]	66
COc1c(C)cccc1-c1nc(C(F)(F)F)ccc1CNC(=O)C(C)c1ccc(CNS(C)(=O)=O)c(F)c1 (centres unmarked) [Example 42, 2-(3-fluoro-4-(methylsulfonamidomethyl)phenyl)-N-((2-(2-methoxy-3-methylphenyl)-6-(trifluoromethyl)pyridin-3-yl)methyl)propanamide]	65
COc1ccc(-c2nc(C(F)(F)F)ccc2CNC(=O)C(C)c2ccc(CNS(C)(=O)=O)c(F)c2)cc1C (centres unmarked) [Example 43, 2-(3-fluoro-4-(methylsulfonamidomethyl)phenyl)-N-((2-(4-methoxy-3-methylphenyl)-6-(trifluoromethyl)pyridin-3-yl)methyl)propanamide]	35
COc1cc(C)cc(-c2nc(C(F)(F)F)ccc2CNC(=O)C(C)c2ccc(CNS(C)(=O)=O)c(F)c2)c1 (centres unmarked) [Example 44, 2-(3-fluoro-4-(methylsulfonamidomethyl)phenyl)-N-((2-(3-methoxy-5-methylphenyl)-6-(trifluoromethyl)pyridin-3-yl)methyl)propanamide]	106
CCOc1ccc(-c2nc(C(F)(F)F)ccc2CNC(=O)C(C)c2ccc(CNS(C)(=O)=O)c(F)c2)cc1C (centres unmarked) [Example 46, N-((2-(4-ethoxy-3-methylphenyl)-6-(trifluoromethyl)pyridin-3-yl)methyl)-2-(3-fluoro-4-(methylsulfonamidomethyl)phenyl)propanamide]	12
CCOc1cc(C)cc(-c2nc(C(F)(F)F)ccc2CNC(=O)C(C)c2ccc(CNS(C)(=O)=O)c(F)c2)c1 (centres unmarked) [Example 47, N-((2-(3-ethoxy-5-methylphenyl)-6-(trifluoromethyl)pyridin-3-yl)methyl)-2-(3-fluoro-4-(methylsulfonamidomethyl)phenyl)propanamide]	37
COCc1cccc(-c2nc(C(F)(F)F)ccc2CNC(=O)C(C)c2ccc(CNS(C)(=O)=O)c(F)c2)c1 (centres unmarked) [Example 49, 2-(3-fluoro-4-(methylsulfonamidomethyl)phenyl)-N-((2-(3-(methoxymethyl)phenyl)-6-(trifluoromethyl)pyridin-3-yl)methyl)propanamide]	28
CC(C)c1cccc(-c2nc(C(F)(F)F)ccc2CNC(=O)C(C)c2ccc(CNS(C)(=O)=O)c(F)c2)c1 (centres unmarked) [Example 50, 2-(3-fluoro-4-(methylsulfonamidomethyl)phenyl)-N-((2-(3-isopropylphenyl)-6-(trifluoromethyl)pyridin-3-yl)methyl)propanamide]	2
CC(C(=O)NCc1ccc(C(F)(F)F)nc1-c1cccc(C(C)(C)C)c1)c1ccc(CNS(C)(=O)=O)c(F)c1 (centres unmarked) [Example 51, N-((2-(3-tert-butylphenyl)-6-(trifluoromethyl)pyridin-3-yl)methyl)-2-(3-fluoro-4-(methylsulfonamidomethyl)phenyl)propanamide]	1
CC(C(=O)NCc1ccc(C(F)(F)F)nc1-c1cccc(C(F)F)c1)c1ccc(CNS(C)(=O)=O)c(F)c1 (centres unmarked) [Example 52, N-((2-(3-(difluoromethyl)phenyl)-6-(trifluoromethyl)pyridin-3-yl)methyl)-2-(3-fluoro-4-(methylsulfonamidomethyl)phenyl)propanamide]	7
CC(C(=O)NCc1ccc(C(F)(F)F)nc1-c1cccc(N(C)C)c1)c1ccc(CNS(C)(=O)=O)c(F)c1 (centres unmarked) [Example 55, N-((2-(3-(dimethylamino)phenyl)-6-(trifluoromethyl)pyridin-3-yl)methyl)-2-(3-fluoro-4-(methylsulfonamidomethyl)phenyl)propanamide]	42

Same assay, conditions: inhibition at 1 μM, read-out: (f) inhibition (human being), Cap, @1 μM

Compound	inhibition at 1 µM [%]
COc1ccc(C)cc1-c1nc(C(F)(F)F)ccc1CNC(=O)C(C)c1ccc(CNS(C)(=O)=O)c(F)c1 (centres unmarked) [Example 45, 2-(3-fluoro-4-(methylsulfonamidomethyl)phenyl)-N-((2-(2-methoxy-5-methylphenyl)-6-(trifluoromethyl)pyridin-3-yl)methyl)propanamide]	15

Same assay, conditions: inhibition at 5 μM, read-out: (f) inhibition (human being), Cap, @5 μM

Compound	inhibition at 5 µM [%]
Cc1cccc(-c2nc(C(F)(F)F)ccc2CNC(=O)[C@H](C)c2ccc(CNS(C)(=O)=O)c(F)c2)c1 [Example 26, (R)-2-(3-fluoro-4-(methylsulfonamidomethyl)phenyl)-N-((2-m-tolyl-6-(trifluoromethyl)pyridin-3-yl)methyl)propanamide]	33
Cc1ccc(C)c(-c2nc(C(F)(F)F)ccc2CNC(=O)C(C)c2ccc(CNS(C)(=O)=O)c(F)c2)c1 (centres unmarked) [Example 33, N-((2-(2,5-dimethylphenyl)-6-(trifluoromethyl)pyridin-3-yl)methyl)-2-(3-fluoro-4-(methylsulfonamidomethyl)phenyl)propanamide]	35
